For 4 compounds, remaining activity results are on record in publication PMC5564600 (Oncotarget, 2017).

Test in all cases: biochemical
What all share (format): binding

Assay [1] concerns the target T1, panel of 442 kinases (Homo sapiens, UniProt Q13873).
T1 construct: purchased Ambit Biosciences (scanMAXX KINOMEscan)
T1 sequence (Q13873 27-1038): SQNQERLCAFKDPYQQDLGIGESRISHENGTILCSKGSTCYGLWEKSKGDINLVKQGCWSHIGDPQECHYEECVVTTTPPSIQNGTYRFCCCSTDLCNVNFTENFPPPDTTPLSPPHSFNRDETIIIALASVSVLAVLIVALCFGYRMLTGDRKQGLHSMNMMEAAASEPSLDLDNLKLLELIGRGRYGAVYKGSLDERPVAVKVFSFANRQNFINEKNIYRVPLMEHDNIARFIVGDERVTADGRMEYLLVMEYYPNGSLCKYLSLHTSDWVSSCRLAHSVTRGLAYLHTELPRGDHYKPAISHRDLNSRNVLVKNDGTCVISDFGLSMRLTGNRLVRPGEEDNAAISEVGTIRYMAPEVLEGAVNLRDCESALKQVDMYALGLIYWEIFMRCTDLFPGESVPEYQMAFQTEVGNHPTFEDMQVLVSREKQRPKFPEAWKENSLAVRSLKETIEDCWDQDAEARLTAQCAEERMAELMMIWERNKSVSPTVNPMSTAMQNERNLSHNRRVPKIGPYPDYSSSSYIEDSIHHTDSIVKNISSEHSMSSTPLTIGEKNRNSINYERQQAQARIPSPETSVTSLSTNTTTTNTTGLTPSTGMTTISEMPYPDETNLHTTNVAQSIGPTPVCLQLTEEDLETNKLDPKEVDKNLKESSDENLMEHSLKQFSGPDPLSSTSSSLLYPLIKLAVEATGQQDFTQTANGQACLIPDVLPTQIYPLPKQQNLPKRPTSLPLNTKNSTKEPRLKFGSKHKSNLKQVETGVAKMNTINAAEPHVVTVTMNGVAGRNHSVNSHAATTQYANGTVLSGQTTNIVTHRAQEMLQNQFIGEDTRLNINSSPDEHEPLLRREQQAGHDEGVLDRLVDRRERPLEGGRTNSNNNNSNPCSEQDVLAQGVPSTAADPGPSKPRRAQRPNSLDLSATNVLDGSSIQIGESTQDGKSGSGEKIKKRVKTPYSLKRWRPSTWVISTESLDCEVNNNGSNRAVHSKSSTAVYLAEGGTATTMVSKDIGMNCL
Particulars: BMPR2; for remaining activity at 1 µM: read-out: % of control at 1 µM.

Assay [2] deals with T2, panel of 442 kinases (Homo sapiens, UniProt Q16816).
T2 construct: purchased Ambit Biosciences (scanMAXX KINOMEscan)
T2 sequence (Q16816 whole entry): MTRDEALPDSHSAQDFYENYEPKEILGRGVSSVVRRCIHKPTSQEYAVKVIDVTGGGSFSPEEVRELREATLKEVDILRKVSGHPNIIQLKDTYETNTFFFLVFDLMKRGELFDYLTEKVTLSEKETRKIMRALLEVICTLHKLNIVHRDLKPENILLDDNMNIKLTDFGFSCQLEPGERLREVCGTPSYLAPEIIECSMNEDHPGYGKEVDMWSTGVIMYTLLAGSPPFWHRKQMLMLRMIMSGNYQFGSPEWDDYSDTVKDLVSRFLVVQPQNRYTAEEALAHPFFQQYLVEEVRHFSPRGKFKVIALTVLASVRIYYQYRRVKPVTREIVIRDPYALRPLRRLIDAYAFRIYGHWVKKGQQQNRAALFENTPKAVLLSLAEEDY
Particulars: kinase PHKG1; for remaining activity at 1 µM: read-out: % of control at 1 µM.

In assay [3] the target is T3, panel of 442 kinases (Homo sapiens, UniProt Q13043).
T3 construct: purchased Ambit Biosciences (scanMAXX KINOMEscan)
T3 sequence (Q13043 1-487): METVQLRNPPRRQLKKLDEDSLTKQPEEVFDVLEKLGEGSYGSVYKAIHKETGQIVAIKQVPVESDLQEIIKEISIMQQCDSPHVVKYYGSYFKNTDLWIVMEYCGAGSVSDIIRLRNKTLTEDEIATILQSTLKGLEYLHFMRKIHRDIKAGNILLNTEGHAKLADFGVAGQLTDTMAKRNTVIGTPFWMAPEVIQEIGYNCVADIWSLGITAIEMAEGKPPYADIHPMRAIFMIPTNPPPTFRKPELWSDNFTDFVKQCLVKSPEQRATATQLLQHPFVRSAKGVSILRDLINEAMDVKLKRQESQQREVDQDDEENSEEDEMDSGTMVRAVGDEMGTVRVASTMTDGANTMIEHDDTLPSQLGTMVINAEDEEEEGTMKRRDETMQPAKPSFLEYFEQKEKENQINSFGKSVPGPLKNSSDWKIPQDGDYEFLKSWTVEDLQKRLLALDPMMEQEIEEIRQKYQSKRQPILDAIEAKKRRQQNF
Particulars: kinase MST1; for remaining activity at 1 µM: read-out: % of control at 1 µM.

Assay [4] addresses T4, panel of 442 kinases (Homo sapiens, UniProt P10721, V559D).
T4 construct: purchased Ambit Biosciences (scanMAXX KINOMEscan)
Particulars: kinase KIT(V559D); for remaining activity at 1 µM: read-out: % of control at 1 µM.

The target in assay [5] is T5, panel of 442 kinases (Homo sapiens, UniProt P42685).
T5 construct: purchased Ambit Biosciences (scanMAXX KINOMEscan)
T5 sequence (P42685 whole entry): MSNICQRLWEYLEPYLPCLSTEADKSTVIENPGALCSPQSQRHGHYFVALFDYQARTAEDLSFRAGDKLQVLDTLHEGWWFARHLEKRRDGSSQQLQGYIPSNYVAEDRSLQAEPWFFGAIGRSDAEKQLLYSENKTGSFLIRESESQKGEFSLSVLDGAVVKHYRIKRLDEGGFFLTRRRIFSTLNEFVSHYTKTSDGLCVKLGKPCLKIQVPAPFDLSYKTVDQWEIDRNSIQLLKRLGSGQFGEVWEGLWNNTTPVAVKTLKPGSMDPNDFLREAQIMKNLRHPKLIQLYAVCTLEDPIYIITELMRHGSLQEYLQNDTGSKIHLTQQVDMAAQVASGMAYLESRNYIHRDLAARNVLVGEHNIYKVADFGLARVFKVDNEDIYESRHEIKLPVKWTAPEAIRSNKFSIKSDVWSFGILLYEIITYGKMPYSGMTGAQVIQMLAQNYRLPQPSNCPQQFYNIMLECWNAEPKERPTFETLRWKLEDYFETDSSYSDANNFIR
Particulars: kinase FRK; for remaining activity at 1 µM: read-out: % of control at 1 µM.

For assay [6], the target named is T6, panel of 442 kinases (Homo sapiens, UniProt P20794).
T6 construct: purchased Ambit Biosciences (scanMAXX KINOMEscan)
T6 sequence (P20794 1-623): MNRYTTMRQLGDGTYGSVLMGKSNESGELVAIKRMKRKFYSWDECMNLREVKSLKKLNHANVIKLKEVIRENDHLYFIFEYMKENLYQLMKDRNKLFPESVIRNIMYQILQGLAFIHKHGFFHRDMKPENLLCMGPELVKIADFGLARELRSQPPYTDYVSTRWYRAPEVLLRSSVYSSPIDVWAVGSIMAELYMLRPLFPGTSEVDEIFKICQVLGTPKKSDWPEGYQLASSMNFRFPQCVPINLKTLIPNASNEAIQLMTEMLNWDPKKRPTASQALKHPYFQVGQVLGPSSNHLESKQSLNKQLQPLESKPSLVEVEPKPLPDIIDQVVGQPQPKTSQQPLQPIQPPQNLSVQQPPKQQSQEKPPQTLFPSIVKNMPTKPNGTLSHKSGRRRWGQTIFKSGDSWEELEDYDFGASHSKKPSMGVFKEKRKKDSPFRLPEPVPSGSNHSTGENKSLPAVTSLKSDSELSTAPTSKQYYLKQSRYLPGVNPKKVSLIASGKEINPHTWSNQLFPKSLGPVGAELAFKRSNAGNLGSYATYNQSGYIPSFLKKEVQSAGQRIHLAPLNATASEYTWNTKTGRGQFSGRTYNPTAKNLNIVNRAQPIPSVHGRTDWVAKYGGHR
Particulars: kinase MAK; for remaining activity at 1 µM: read-out: % of control at 1 µM.

The target of assay [7] is T7, panel of 442 kinases (Homo sapiens, UniProt P57059).
T7 construct: purchased Ambit Biosciences (scanMAXX KINOMEscan)
T7 sequence (P57059 whole entry): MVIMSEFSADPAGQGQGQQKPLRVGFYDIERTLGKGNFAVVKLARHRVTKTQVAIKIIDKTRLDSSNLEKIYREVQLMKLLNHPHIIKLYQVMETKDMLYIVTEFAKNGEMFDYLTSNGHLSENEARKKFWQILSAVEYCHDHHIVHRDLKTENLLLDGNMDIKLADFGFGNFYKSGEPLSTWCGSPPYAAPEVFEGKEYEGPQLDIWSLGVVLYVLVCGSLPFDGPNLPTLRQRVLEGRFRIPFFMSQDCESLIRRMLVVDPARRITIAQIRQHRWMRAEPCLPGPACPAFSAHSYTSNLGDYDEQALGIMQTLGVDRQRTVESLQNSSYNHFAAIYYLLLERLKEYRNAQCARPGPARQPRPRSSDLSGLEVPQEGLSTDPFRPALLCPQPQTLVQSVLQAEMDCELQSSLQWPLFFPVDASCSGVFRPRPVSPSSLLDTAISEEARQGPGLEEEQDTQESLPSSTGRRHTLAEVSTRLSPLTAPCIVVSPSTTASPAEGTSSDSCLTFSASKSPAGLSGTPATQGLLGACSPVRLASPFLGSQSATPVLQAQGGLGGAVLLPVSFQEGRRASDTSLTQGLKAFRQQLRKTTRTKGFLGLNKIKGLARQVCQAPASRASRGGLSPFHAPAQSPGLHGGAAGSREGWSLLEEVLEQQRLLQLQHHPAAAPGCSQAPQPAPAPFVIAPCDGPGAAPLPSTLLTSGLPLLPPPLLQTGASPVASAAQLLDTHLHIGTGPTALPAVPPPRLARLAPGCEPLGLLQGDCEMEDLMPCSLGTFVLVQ
Particulars: kinase SIK; for remaining activity at 1 µM: read-out: SIK (% of control at 1 µM).

In assay [8] the target is T8, panel of 442 kinases (Homo sapiens, UniProt P14616).
T8 construct: purchased Ambit Biosciences (scanMAXX KINOMEscan)
T8 sequence (P14616 27-1297): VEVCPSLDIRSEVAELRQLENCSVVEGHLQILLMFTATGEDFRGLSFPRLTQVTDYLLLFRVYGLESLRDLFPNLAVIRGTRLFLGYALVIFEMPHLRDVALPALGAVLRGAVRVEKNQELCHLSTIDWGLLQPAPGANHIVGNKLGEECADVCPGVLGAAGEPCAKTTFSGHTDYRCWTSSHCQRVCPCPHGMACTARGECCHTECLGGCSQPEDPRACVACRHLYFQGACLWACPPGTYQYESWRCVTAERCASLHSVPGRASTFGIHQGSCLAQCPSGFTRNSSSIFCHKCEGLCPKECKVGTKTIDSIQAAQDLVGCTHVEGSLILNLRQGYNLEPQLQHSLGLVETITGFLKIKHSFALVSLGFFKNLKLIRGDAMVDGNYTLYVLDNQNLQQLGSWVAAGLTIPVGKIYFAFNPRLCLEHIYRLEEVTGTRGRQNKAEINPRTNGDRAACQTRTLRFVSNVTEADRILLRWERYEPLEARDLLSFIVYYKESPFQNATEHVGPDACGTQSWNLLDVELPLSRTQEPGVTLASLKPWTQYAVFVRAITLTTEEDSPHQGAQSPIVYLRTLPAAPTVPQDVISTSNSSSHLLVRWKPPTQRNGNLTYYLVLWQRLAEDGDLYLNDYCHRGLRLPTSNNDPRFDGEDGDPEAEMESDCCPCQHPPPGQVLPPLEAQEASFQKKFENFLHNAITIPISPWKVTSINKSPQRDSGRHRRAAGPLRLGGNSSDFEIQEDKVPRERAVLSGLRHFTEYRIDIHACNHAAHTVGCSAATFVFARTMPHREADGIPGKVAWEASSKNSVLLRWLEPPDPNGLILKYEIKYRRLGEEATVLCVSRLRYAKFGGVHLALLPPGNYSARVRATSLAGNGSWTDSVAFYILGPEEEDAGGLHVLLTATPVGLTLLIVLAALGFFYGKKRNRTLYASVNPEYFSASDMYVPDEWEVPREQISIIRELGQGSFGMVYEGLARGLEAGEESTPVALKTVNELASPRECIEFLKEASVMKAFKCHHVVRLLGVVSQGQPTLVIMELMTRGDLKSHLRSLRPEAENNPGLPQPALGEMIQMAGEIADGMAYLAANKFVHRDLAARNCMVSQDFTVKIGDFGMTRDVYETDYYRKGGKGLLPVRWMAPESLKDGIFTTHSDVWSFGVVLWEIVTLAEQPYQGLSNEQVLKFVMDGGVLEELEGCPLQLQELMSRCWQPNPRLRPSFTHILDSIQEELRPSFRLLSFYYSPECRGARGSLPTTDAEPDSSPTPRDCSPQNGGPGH
Particulars: kinase INSRR; for remaining activity at 1 µM: read-out: % of control at 1 µM.

Setting [9] is: 10 µM, read-out: % of control at 10 µM.

T4 sequence (P10721 26-976 V559D): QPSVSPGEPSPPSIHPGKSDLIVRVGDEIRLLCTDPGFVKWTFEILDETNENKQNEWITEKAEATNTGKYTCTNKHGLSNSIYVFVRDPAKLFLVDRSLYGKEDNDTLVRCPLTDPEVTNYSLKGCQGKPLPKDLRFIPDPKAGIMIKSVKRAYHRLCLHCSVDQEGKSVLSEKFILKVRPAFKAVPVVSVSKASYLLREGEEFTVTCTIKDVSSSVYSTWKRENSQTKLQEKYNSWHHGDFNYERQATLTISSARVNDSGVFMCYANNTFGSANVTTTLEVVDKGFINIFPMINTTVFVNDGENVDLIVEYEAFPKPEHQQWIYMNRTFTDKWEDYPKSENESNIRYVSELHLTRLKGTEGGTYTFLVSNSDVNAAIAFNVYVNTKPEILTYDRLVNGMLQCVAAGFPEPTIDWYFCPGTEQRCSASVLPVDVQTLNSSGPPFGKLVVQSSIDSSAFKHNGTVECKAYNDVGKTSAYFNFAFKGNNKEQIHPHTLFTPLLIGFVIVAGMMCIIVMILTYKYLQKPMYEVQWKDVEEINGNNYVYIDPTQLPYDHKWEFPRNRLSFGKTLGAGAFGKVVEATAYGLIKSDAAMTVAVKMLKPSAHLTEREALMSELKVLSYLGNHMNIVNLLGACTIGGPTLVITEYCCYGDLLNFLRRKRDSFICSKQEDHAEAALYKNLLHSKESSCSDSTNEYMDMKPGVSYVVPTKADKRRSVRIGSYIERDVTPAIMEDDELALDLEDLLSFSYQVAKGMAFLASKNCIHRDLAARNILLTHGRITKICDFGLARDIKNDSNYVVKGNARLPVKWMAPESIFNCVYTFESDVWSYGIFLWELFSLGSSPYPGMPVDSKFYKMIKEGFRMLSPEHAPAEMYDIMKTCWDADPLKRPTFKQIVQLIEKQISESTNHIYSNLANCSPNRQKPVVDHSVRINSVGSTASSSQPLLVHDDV

As for `Nc1cc(C(F)(F)F)c(-c2cc(N3CCOCC3)nc(N3CCOCC3)n2)cn1` [Buparlisib], the remaining activity at 1 µM in assay [1] is 86%; in assay [2] it was 99%; in assay [3] it was 95%; in assay [4] it was 100%; in assay [5], 100%; in assay [6], 98%. The remaining activity at 1 µM in assay [7] and in assay [8] was 100% in each case. The remaining activity at 10 µM is 88% in assay [1] (setting [9]); 100% in assay [2] (setting [9]); 100% in assay [3] (setting [9]); 66% in assay [4] (setting [9]); 100% in assay [5] (setting [9]); 89% in assay [6] (setting [9]). The remaining activity at 10 µM in assay [7] (10 µM, read-out: SIK (% of control at 10 µM)) is 100%; in assay [8] (setting [9]), 100%.

`Cn1c(=O)n(-c2ccc(C(C)(C)C#N)cc2)c2c3cc(-c4cnc5ccccc5c4)ccc3ncc21` [Dactolisib, 2-methyl-2-[4-(3-methyl-2-oxo-8-quinolin-3-yl-2,3-dihydroimidazo[4,5-c]quinolin-1-yl)-phenyl] propionitrile]: the remaining activity at 1 µM came to 83% in assay [1]; 100% in assay [2]; 66% in assay [3]; 65% in assay [4]; 85% in assay [5]; 64% in assay [6]. Also, the remaining activity at 1 µM in assay [7] and in assay [8] was 100% each time.

Take `FC(F)c1nc2ccccc2n1-c1nc(N2CCOCC2)nc(N2CCOCC2)n1` [ZSTK474, 2-(difluoromethyl)-1-[4,6-di(4-morpholinyl)-1,3,5-triazin-2-yl]-1H-benzimidazole]: the remaining activity at 1 µM turned out to be 100% in assay [1]; 100% in assay [2]; 53% in assay [3]; 84% in assay [4]; 83% in assay [5]; 87% in assay [6]. In addition, the remaining activity at 1 µM amounted to 100% in assay [7] and 88% in assay [8].

In the case of `COc1ncc(-c2ccc3nccc(-c4ccnnc4)c3c2)cc1NS(=O)(=O)c1ccc(F)cc1F` [Omipalisib], the remaining activity at 1 µM in assay [1] turned out to be 100%; in assay [2], 86%; in assay [3], 100%; in assay [4], 96%; in assay [5] it was 98%; in assay [6], 71%. The figures for the remaining activity at 1 µM in assay [7] and in assay [8] were 100% and 93%, respectively.
